These results are taken from PubChem BioAssay AID248 (DTP/NCI, 2004).

Several values for one entry are separate records, joined by “and”; a condition that tells them apart may be missing. Identical values can stand only once. Toxic doses and inconclusive results are not listed.

This experiment has as its system L1210 leukemia ip in BDF1 mice, survival T/C. Description: NCI In Vivo Anticancer Drug Screen. Data for tumor model L1210 Leukemia (intraperitoneal) in B6D2F1 (BDF1) mice. As to conditions: endpoint: mean survival time, higher = longer survival. Summed up: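 Read-out is survival time, reported as the treated-group measurement over the vehicle-control measurement.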

[1] abbreviates: dose: 100.0 mg/kg/injection, schedule: Q01DX001 (ip), vehicle: saline.
Setting [2] is: dose: 200.0 mg/kg/injection, schedule: Q01DX001 (ip), vehicle: saline.
Where [3] appears, read: dose: 400.0 mg/kg/injection, schedule: Q01DX001 (ip), vehicle: saline.
Setting [4] is: dose: 100.0 mg/kg/injection, schedule: Q04DX003 (ip), vehicle: saline.
Where [5] appears, read: dose: 200.0 mg/kg/injection, schedule: Q04DX003 (ip), vehicle: saline.
Setting [6] is: dose: 400.0 mg/kg/injection, schedule: Q04DX003 (ip), vehicle: saline.
[7] abbreviates: dose: 75.0 mg/kg/injection, schedule: Q01DX001 (ip), vehicle: saline.
Where [8] appears, read: dose: 100.0 mg/kg/injection, schedule: Q04DX003 (ip), vehicle: saline with Tween-80.
The mark [9] stands for this setting: dose: 200.0 mg/kg/injection, schedule: Q04DX003 (ip), vehicle: saline with Tween-80.

`O=C1CC(c2ccc(OCN(CCCl)CCCl)cc2)CC(=O)C1CN(CCCl)CCCl` (configuration not stated): the T/C is 95 % of control (dose: 0.2 mg/kg/injection, schedule: Q01DX009 (ip), vehicle: carboxymethylcellulose (CMC)); 122 % of control (dose: 0.37 mg/kg/injection, schedule: Q01DX009 (ip), vehicle: saline); 102 % of control (dose: 0.39 mg/kg/injection, schedule: Q01DX009 (ip), vehicle: carboxymethylcellulose (CMC)); 101 % of control (dose: 0.5 mg/kg/injection, schedule: Q01DX009 (ip), vehicle: carboxymethylcellulose (CMC)); 107 % of control (dose: 0.9 mg/kg/injection, schedule: Q01DX009 (ip), vehicle: carboxymethylcellulose (CMC)); 104 % of control (dose: 1.0 mg/kg/injection, schedule: Q01DX009 (ip), vehicle: carboxymethylcellulose (CMC)). Also, the T/C is 87 % of control (dose: 1.4 mg/kg/injection, schedule: Q01DX009 (ip), vehicle: carboxymethylcellulose (CMC)); 193 % of control (dose: 2.0 mg/kg/injection, schedule: Q01DX001 (ip), vehicle: saline); 114 % of control (dose: 2.0 mg/kg/injection, schedule: Q01DX009 (ip), vehicle: carboxymethylcellulose (CMC)); 106 % of control and 90 % of control (dose: 3.0 mg/kg/injection, schedule: Q01DX009 (ip), vehicle: saline); 104 % of control and 109 % of control (dose: 4.0 mg/kg/injection, schedule: Q01DX001 (ip), vehicle: saline); 123 % of control (dose: 6.0 mg/kg/injection, schedule: Q04DX003 (ip), vehicle: saline). In addition, the T/C by setting is: (dose: 6.6 mg/kg/injection, schedule: Q01DX009 (ip), vehicle: carboxymethylcellulose (CMC)) 157 % of control; (dose: 7.5 mg/kg/injection, schedule: Q01DX001 (ip), vehicle: saline) 122 % of control; (dose: 8.58 mg/kg/injection, schedule: Q01DX001 (ip), vehicle: carboxymethylcellulose (CMC)) 124 % of control; (dose: 10.0 mg/kg/injection, schedule: Q01DX009 (ip), vehicle: carboxymethylcellulose (CMC)) 93 % of control; (dose: 13.0 mg/kg/injection, schedule: Q01DX001 (ip), vehicle: carboxymethylcellulose (CMC)) 114 % of control; (dose: 19.5 mg/kg/injection, schedule: Q01DX001 (ip), vehicle: carboxymethylcellulose (CMC)) 118 % of control. For the same compound, the T/C is 100 % of control (dose: 0.1 micrograms/kg/injection, schedule: Q01DX001 (ip), vehicle: saline); 102 % of control (dose: 0.2 micrograms/kg/injection, schedule: Q01DX001 (ip), vehicle: saline); 100 % of control (dose: 0.5 micrograms/kg/injection, schedule: Q01DX001 (ip), vehicle: saline); 100 % of control (dose: 1.0 micrograms/kg/injection, schedule: Q01DX001 (ip), vehicle: saline).
Consider `CCOC(CN)C(Cl)(Cl)Cl` (configuration not stated), for which the T/C is 98 % of control (dose: 50.0 mg/kg/injection, schedule: Q01DX009 (ip), vehicle: saline); 98 % of control and 104 % of control (dose: 100.0 mg/kg/injection, schedule: Q01DX009 (ip), vehicle: saline); 101 % of control and 116 % of control (dose: 200.0 mg/kg/injection, schedule: Q01DX009 (ip), vehicle: saline).
For `COc1cc2c(cc1OC)/C(=C\C#N)NCC2`, the T/C is, setting by setting: under setting [1], 98 % of control; under setting [2], 98 % of control; under setting [3], 100 % of control.
Consider `Nc1nc(-c2ccc([N+](=O)[O-])cc2)cc(=O)[nH]1`, for which the T/C was 98 % of control (dose: 100.0 mg/kg/injection, schedule: Q01DX001 (ip), vehicle: saline with Tween-80); 93 % of control (dose: 200.0 mg/kg/injection, schedule: Q01DX001 (ip), vehicle: saline with Tween-80); 92 % of control (dose: 400.0 mg/kg/injection, schedule: Q01DX001 (ip), vehicle: saline with Tween-80).
On to `OC(CCl)CNc1ccc(-c2ccccc2)cc1` (configuration not stated), for which the T/C runs as follows: (dose: 100.0 mg/kg/injection, schedule: Q01DX001 (ip), vehicle: other) 94 % of control; (dose: 100.0 mg/kg/injection, schedule: Q04DX003 (ip), vehicle: Klucel (hydroxypropylcellulose) (HPC)) 100 % of control; (dose: 200.0 mg/kg/injection, schedule: Q01DX001 (ip), vehicle: other) 92 % of control; (dose: 200.0 mg/kg/injection, schedule: Q04DX003 (ip), vehicle: Klucel (hydroxypropylcellulose) (HPC)) 86 % of control; (dose: 400.0 mg/kg/injection, schedule: Q01DX001 (ip), vehicle: other) 97 % of control.
As for `NC(=O)/C(=C\c1ccc([N+](=O)[O-])o1)c1ccco1`, the T/C is 93 % of control (dose: 55.0 mg/kg/injection, schedule: Q01DX Z (ip), vehicle: methylcellulose (MC)); 98 % of control (dose: 83.0 mg/kg/injection, schedule: Q01DX Z (ip), vehicle: methylcellulose (MC)); 100 % of control (dose: 125.0 mg/kg/injection, schedule: Q01DX Z (ip), vehicle: methylcellulose (MC)).
`COc1ccc([N+](=O)[O-])cc1NS(=O)(=O)c1ccc(Cl)cc1`: the T/C (dose: 100.0 mg/kg/injection, schedule: Q01DX009 (ip), vehicle: Klucel (hydroxypropylcellulose) (HPC)) was 102 % of control; the T/C (dose: 200.0 mg/kg/injection, schedule: Q01DX009 (ip), vehicle: Klucel (hydroxypropylcellulose) (HPC)) was 98 % of control; the T/C (dose: 400.0 mg/kg/injection, schedule: Q01DX009 (ip), vehicle: Klucel (hydroxypropylcellulose) (HPC)) was 93 % of control.
`CCCC1=CN(Cc2ccccc2)c2ccccc2C1`: the T/C runs as follows: under setting [1], 96 % of control; under setting [4], 97 % of control; under setting [2], 96 % of control; under setting [5], 97 % of control; under setting [3], 97 % of control; under setting [6], 93 % of control.
Regarding `CCOC(=O)NNC(=O)CN`, the T/C under setting [7] was 104 % of control.
With `CC(C)CNCc1cc([N+](=O)[O-])ccc1O`, the T/C is 100 % of control under setting [7]; 97 % of control (dose: 150.0 mg/kg/injection, schedule: Q01DX001 (ip), vehicle: saline); 94 % of control (dose: 300.0 mg/kg/injection, schedule: Q01DX001 (ip), vehicle: saline).
For `CCN1CCC2C[N+](C)([O-])CCN2C1=O` (configuration not stated), the T/C reads like this: under setting [8], 93 % of control; under setting [9], 95 % of control; (dose: 400.0 mg/kg/injection, schedule: Q04DX003 (ip), vehicle: saline with Tween-80) 98 % of control.
Turning to `CCOC(=O)C(C#N)c1ccccc1` (configuration not stated), the T/C reads like this: (dose: 50.0 mg/kg/injection, schedule: Q01DX001 (ip), vehicle: saline) 96 % of control; under setting [1], 100 % of control; under setting [2], 100 % of control.
For `O=C(c1ccccc1)C1(Br)CCC1`, the T/C by setting is: (dose: 100.0 mg/kg/injection, schedule: Q01DX009 (ip), vehicle: saline sonified) 101 % of control; (dose: 200.0 mg/kg/injection, schedule: Q01DX009 (ip), vehicle: saline sonified) 97 % of control; (dose: 400.0 mg/kg/injection, schedule: Q01DX009 (ip), vehicle: saline sonified) 101 % of control.
`OC1COC(n2cnc3c(=S)nc[nH]c32)CC1O` (configuration not stated): the T/C by setting is: (dose: 5.0 mg/kg/injection, schedule: Q01DX001 (ip), vehicle: saline) 100 % of control; (dose: 10.0 mg/kg/injection, schedule: Q01DX001 (ip), vehicle: saline) 103 % of control; (dose: 20.0 mg/kg/injection, schedule: Q01DX001 (ip), vehicle: saline) 100 % of control; (dose: 40.0 mg/kg/injection, schedule: Q01DX001 (ip), vehicle: saline) 95 % of control; under setting [1], 107 % of control; under setting [2], 108 % of control. Moreover, under setting [3], the T/C is 124 % of control.
Turning to `O=C(COc1ccc(Cl)c(Cl)c1)NCc1ccc[n+](Cc2ccc(Cl)cc2S(=O)(=O)F)c1`, the T/C was 100 % of control under setting [8] and 106 % of control under setting [9].
Take `COc1ccc(/C=C2\CN(CCC(=O)O)C(=O)C2=O)cc1`: the T/C was 103 % of control under setting [1]; 98 % of control under setting [4]; 98 % of control under setting [2]; 98 % of control under setting [5]; 98 % of control under setting [3]; 98 % of control under setting [6].
As for `CC(C)C(C(=O)c1ccccc1)C(Cl)c1ccccc1` (configuration not stated), the T/C was 94 % of control (dose: 100.0 mg/kg/injection, schedule: Q04DX003 (ip), vehicle: other); 102 % of control (dose: 200.0 mg/kg/injection, schedule: Q04DX003 (ip), vehicle: other); 93 % of control (dose: 400.0 mg/kg/injection, schedule: Q04DX003 (ip), vehicle: other).
With `Cc1ccnc(NS(=O)(=O)c2ccc(N=Nc3c(N)[nH]c(=O)[nH]c3=O)cc2)n1`, the T/C runs as follows: under setting [1], 100 % of control; under setting [2], 102 % of control; under setting [3], 105 % of control.
